Source: PubChem BioAssay (NCI)
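Five concentrations, 48 hours, 96-well plates. At the TGI there is no net growth.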

Columns and labels:
Assay in all cases: DTP human tumour cell line panel, 48 h
MDA-MB-435 = tested on: MDA-MB-435
NCI-H460 lung = tested on: NCI-H460 lung
RPMI-8226 leukemia = tested on: RPMI-8226 leukemia
NCI-H226 lung = tested on: NCI-H226 lung
MDA-MB-231 breast = tested on: MDA-MB-231 breast
SK-MEL-5 melanoma = tested on: SK-MEL-5 melanoma
UACC-257 melanoma = tested on: UACC-257 melanoma
OVCAR-5 ovarian = tested on: OVCAR-5 ovarian
A498 renal = tested on: A498 renal
786-0 renal = tested on: 786-0 renal
EKVX NSCLC = tested on: EKVX NSCLC

Row | Structure (SMILES) | TGI (MDA-MB-435) | TGI (NCI-H460 lung) | TGI (RPMI-8226 leukemia) | TGI (NCI-H226 lung) | TGI (MDA-MB-231 breast) | TGI (SK-MEL-5 melanoma) | TGI (UACC-257 melanoma) | TGI (OVCAR-5 ovarian) | TGI (A498 renal) | TGI (786-0 renal) | TGI (EKVX NSCLC)
1 | CC(=O)OC1COC(n2c(N)c(C#N)c(C)c(C#N)c2=S)C(OC(C)=O)C1OC(C)=O (stereo not drawn) | > 100 µM | > 100 µM | > 100 µM | > 100 µM | > 100 µM | > 100 µM | > 100 µM | > 100 µM | > 100 µM | > 100 µM | –
2 | O=C1CCCC2=C1CC1=C(CCCC1=O)N2c1cccc2ccccc12 | – | > 100 µM | > 100 µM | > 100 µM | – | > 100 µM | – | > 100 µM | > 100 µM | > 100 µM | > 100 µM
3 | N#CS/C(Cl)=C(/C(Cl)=C(Cl)Cl)[N+](=O)[O-] | – | > 100 µM | – | > 100 µM | > 100 µM | > 100 µM | > 100 µM | > 100 µM | > 100 µM | 76.4 µM | > 100 µM
4 | CC(=O)Nc1ccc2c(C)c3c4ccccc4n(C)c3nc2n1 | 45.7 µM | 15.5 µM | – | > 100 µM | 41.2 µM | 21.9 µM | 57.5 µM | 51.6 µM | 46.2 µM | 35.3 µM | > 100 µM
5 | CC1=C(OC2OC(CO)C(O)C(O)C2O)C(=O)C[C@H]2C1=CC[C@@H]1[C@@]2(C)C(=O)C[C@]2(C)[C@@H]([C@@](C)(O)C(=O)CCC(C)(C)O)[C@H](O)C[C@@]12C (stereo partly drawn) | > 100 µM | > 100 µM | – | > 100 µM | > 100 µM | > 100 µM | > 100 µM | > 100 µM | > 100 µM | > 100 µM | > 100 µM
6 | COc1cc2[nH]c(-c3cccc(N(C)C)c3)cc(=O)c2cc1OC | – | > 100 µM | > 100 µM | > 25.3 µM | – | > 100 µM | > 100 µM | > 100 µM | > 100 µM | > 100 µM | > 100 µM
7 | CNC(=O)CCNC(=O)CCC(=O)OC | > 100 µM | > 100 µM | – | – | > 100 µM | > 100 µM | – | > 100 µM | > 100 µM | > 100 µM | –
8 | COC12C=CC(CC1)C1C(=O)c3c(C)c(C)n(C)c3C(=O)C12 (stereo not drawn) | > 100 µM | > 100 µM | > 100 µM | > 100 µM | – | > 100 µM | > 100 µM | > 100 µM | > 100 µM | > 100 µM | > 100 µM
9 | O=C1N=C(c2ccccc2)O/C1=C\c1ccccc1 | > 100 µM | > 100 µM | > 100 µM | > 100 µM | > 100 µM | > 100 µM | > 100 µM | > 100 µM | > 100 µM | > 100 µM | –
10 | O=C1CCCc2cc3c(cc21)CCC3C(=O)O (stereo not drawn) | – | > 100 µM | > 100 µM | > 100 µM | > 100 µM | > 100 µM | > 100 µM | > 100 µM | – | > 100 µM | > 100 µM
11 | COC1OC(CO)C(O)C(OC(=O)c2cc(O)c(O)c(O)c2)C1OC(=O)c1cc(O)c(O)c(O)c1 (stereo not drawn) | > 100 µM | > 100 µM | > 100 µM | > 100 µM | > 100 µM | > 100 µM | > 100 µM | > 100 µM | – | > 100 µM | > 100 µM
12 | CC1(C)OCC(C2OC(N3O[C@H](CI)C[C@@H]3c3ccccc3)C3OC(C)(C)OC23)O1 (stereo partly drawn) | > 100 µM | > 100 µM | > 100 µM | – | > 100 µM | > 100 µM | > 100 µM | > 100 µM | > 100 µM | > 100 µM | > 100 µM
13 | COc1ccc2c3ccc4c(c3n(C)c2c1)C(=O)c1ccccc1C4=O | – | – | > 100 µM | > 100 µM | – | > 100 µM | > 100 µM | – | > 100 µM | > 100 µM | > 100 µM
14 | O=c1cc(-c2cccc(OC(F)(F)F)c2)[nH]c2cc3c(cc12)OCO3 | 0.0367 µM | 1.1 µM | 0.271 µM | 9.16 µM | – | 0.336 µM | > 100 µM | > 100 µM | 7.75 µM | 0.75 µM | > 100 µM
15 | COc1cc(-c2coc3c(OC)c(OC4OC(CO)C(O)C(O)C4O)c(OC)cc3c2=O)cc(OC)c1C (stereo not drawn) | 17.9 µM | > 70.1 µM | > 100 µM | 68.1 µM | > 54.5 µM | 27.8 µM | > 31.6 µM | 32.7 µM | – | > 100 µM | 27.3 µM
16 | Cc1c2c(n(CCc3ccccc3)c1C)NN=C(C#N)S2(=O)=O | > 100 µM | > 100 µM | > 100 µM | – | > 100 µM | > 100 µM | > 100 µM | > 100 µM | – | > 100 µM | > 100 µM
17 | CC1=NN(C(=O)Cc2ccccc2)C(=O)/C1=C\C=C\c1ccccc1 | – | – | > 100 µM | > 100 µM | – | > 100 µM | > 100 µM | > 100 µM | – | > 100 µM | > 100 µM
18 | Cc1cc2oc(=O)[nH]c(=S)c2c(C)c1C | – | > 100 µM | > 100 µM | > 100 µM | – | – | > 100 µM | – | > 100 µM | > 100 µM | > 100 µM
19 | COc1ccc(C2C(Cl)C(=O)N2NC(=O)Cc2ccccc2)cc1 (stereo not drawn) | – | > 100 µM | > 100 µM | > 100 µM | – | > 100 µM | > 100 µM | > 100 µM | – | > 100 µM | > 100 µM
20 | C=C[C@@]1(C)CC(=O)[C@]2(O)[C@@]3(C)[C@@H](OC(C)=O)CCC(C)(C)[C@@H]3[C@H](OC(C)=O)[C@H](OC(C)=O)[C@@]2(C)O1 | > 100 µM | > 100 µM | – | > 100 µM | > 100 µM | – | > 100 µM | > 100 µM | > 100 µM | > 100 µM | > 100 µM
21 | CC1(O)/C(=N/O)CC2CC1C2(C)C (stereo not drawn) | > 100 µM | > 100 µM | > 100 µM | > 100 µM | > 100 µM | > 100 µM | > 100 µM | > 100 µM | – | > 100 µM | –
